Measurements published in US6794402B2, “Bicyclic cyclohexylamines and their use as NMDA receptor antagonists” (Warner-Lambert Company, priority 2000, dated 2004).
Where a name gives a salt, the structure may show the parent alone.

Columns and labels:
[1] = target: T1, [3H]ifenprodil binding site, rat forebrain membranes (Rattus norvegicus, UniProt P35439+Q00960); assay: [3H]Ifenprodil binding assay; conditions: 4 nM [3H]-ifenprodil, 2 hours at room temperature
T1 construct: membrane fraction was prepared from frozen adult rat forebrains; tissue Zivic-Miller Laboratories, Inc; host or cells: adult rat forebrain, washed buffy coat membrane fraction
T1 sequence (Q00960 27-1482, other chains not shown): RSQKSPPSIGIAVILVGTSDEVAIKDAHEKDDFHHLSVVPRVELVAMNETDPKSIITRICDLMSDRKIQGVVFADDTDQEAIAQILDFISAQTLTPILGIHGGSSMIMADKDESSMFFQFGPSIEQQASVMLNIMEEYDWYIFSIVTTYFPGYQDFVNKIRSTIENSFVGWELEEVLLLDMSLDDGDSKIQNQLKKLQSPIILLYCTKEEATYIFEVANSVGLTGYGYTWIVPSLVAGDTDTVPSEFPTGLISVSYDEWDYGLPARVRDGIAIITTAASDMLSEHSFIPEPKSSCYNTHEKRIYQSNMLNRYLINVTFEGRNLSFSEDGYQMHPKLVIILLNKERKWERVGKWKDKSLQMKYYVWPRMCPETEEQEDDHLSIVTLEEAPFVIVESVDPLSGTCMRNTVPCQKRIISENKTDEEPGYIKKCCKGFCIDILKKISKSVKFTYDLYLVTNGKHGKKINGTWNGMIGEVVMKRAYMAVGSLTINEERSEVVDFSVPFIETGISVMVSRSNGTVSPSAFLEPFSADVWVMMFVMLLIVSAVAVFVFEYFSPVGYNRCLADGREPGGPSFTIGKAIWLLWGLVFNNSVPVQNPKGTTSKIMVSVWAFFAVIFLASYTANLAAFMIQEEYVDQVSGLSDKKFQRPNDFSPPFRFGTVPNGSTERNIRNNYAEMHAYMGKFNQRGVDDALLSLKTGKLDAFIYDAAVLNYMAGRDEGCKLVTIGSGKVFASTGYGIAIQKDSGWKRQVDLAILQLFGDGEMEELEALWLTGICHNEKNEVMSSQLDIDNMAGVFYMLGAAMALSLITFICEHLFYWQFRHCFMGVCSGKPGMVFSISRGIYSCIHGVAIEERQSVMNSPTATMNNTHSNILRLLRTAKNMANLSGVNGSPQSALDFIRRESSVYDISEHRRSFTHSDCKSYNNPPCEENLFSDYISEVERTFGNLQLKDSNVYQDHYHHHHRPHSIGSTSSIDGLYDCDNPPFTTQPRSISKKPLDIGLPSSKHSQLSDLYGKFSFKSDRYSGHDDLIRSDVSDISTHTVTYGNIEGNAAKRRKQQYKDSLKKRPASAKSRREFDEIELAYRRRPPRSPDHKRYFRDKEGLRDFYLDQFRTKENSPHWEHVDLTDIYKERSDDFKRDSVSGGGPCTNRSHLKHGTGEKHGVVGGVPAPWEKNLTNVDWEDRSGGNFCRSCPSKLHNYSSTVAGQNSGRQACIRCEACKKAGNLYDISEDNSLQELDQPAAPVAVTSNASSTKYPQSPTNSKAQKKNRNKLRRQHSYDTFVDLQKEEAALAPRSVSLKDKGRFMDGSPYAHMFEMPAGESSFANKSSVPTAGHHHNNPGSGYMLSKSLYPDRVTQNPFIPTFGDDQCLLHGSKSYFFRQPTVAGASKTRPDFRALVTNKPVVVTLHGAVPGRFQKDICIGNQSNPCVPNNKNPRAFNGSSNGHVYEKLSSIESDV
Experimental: All buffers and reagents used in assay incubations or to dissolve drugs were prepared using water purified through a Milli-Q reverse osmosis system (Millipore Corp, Bedford, Mass.) and treated with UV emissions. Prior to use in the assays, buffers were further filtered through a sterile Corning filtration unit (Corning Glass Works, Corning, N.Y.) containing a 0.2-micron filter. Buffer used to rinse the membranes on the assay filters was prepared with purified water, but was not refiltered and was stored no longer than 5 days. Stock solutions of the drugs (usually 10 mM) were dissolved in 20 mM HEPES-KOH buffer pH 7.4 (assay buffer) with the addition of 1 to 5 μL of glacial AcOH, if needed to keep them in solution. For eliprodil the stock solution was buffered with the addition of 10% DMSO. All subsequent dilutions from stock were made in buffer.
An extensively washed buffy coat membrane fraction was prepared from frozen adult rat forebrains (Zivic-Miller Laboratories, Inc., Zelienople, Pa.) as described previously (Coughenour L. L., Cordon, J. J., J. Pharmacol. Exp. Ther., 1997;280:584-592) and stored at −80° C. On the day of the assay, pellets were resuspended in 35 mL of assay buffer at pH 7.4 using a Polytron setting 6. After incubation at 37° C. for 30 minutes in a shaking water bath, the homogenate was centrifuged 40,000×g for 10 minutes at 4° C. The pellets were resuspended in fresh buffer and centrifuged 3 more times before final suspension for use in the assay.
[^3H]Ifenprodil Binding. Triplicate incubations were carried out in a volume of 0.5 mL in 1.3 mL polypropylene tubes (Marsh Biomedical Products Inc., Rochester, N.Y.) for 2 hours at room temperature. Incubations contained test agents, membranes (100-200 μg protein) and 4 nM[^3H]-ifenprodil in 20 mM HEPES-KOH buffer, pH 7.4 (assay buffer). Assays were started by addition of the membranes. Bound radioligand was separated by filtration under reduced pressure using a Tomtec Mach II, 96-well cell harvester (Tomtec Inc., Orange, Colo.). Filtration was through Whatman GF/B glass fiber filters (Whatman Ltd, Maidstone, England), which had been soaked for at least 15 minutes in 0.3% polyethylenimine and allowed to air dry. The filters were rinsed with 3 mL of ice cold assay buffer within 6 seconds. Air was allowed to pass through the filters for an additional 10 seconds to remove residual moisture. The filter mat was supported on a cold (−20° C.) teflon support, and filters from individual wells were separated and placed in Mini Poly-Q vials (Beckman Instruments Inc., Fullerton, Calif.) and filled with 4 mL of scintillation cocktail (Beckman Ready Protein^+). Radioactivity retained on the filter was determined by liquid scintillation spectrophotometry. Nonspecific binding was defined as the binding in the presence of 1 mM ifenprodil. Specific binding was 90%.
Data analysis. Binding curves were statistically analyzed for a best one or two site competition fit using GraphPad Prism software (GraphPad Software Inc., San Diego, Calif.). The normalized data was fit by nonweighted nonlinear regression to either [formula]
Control data was entered as 100%, and no parameters were constrained. Inhibition curves were compared by ANOVA with post test comparisons of the logIC50 using Dunnett's multiple comparisons post test or Student's nonpaired, two-tailed t-test (GraphPad InStat software).

SMILES | melting point [°C] | IC50 [1] [nM]
O=c1[nH]c2ccc([C@H]3CC[C@H](N(CCCc4ccc(F)cc4)CC4CC4)CC3)cc2o1 (as salt: HCl) [Example 30, 6-(trans-4-{Cyclopropylmethyl-[3-(4-fluorophenyl)propyl]amino}cyclohexyl)-3H-benzoxazol-2-one] | 221 to 225 | 
O=c1[nH]c2ccc([C@H]3CC[C@H](N(CCCc4ccc(F)cc4)Cc4ccoc4)CC3)cc2o1 (as salt: HCl) [Example 31, 6-(trans-4-{[3-(4-Fluorophenyl)propyl]furan-3-ylmethylamino}cyclohexyl)-3H-benzoxazol-2-one] | 225 to 227 | 
C=CCN(CCCc1ccc(F)cc1)[C@H]1CC[C@H](c2ccc3[nH]c(=O)oc3c2)CC1 (as salt: HCl) [Example 32, 6-(trans-4-{Allyl-[3-(4-fluorophenyl)propyl]amino}cyclohexyl)-3H-benzoxazol-2-one] | 224 to 230 | 
CC(C)CN(CCCc1ccc(F)cc1)[C@H]1CC[C@H](c2ccc3[nH]c(=O)oc3c2)CC1 (as salt: HCl) [Example 33, 6-(trans-4-{[3-(4-Fluorophenyl)propyl]isobutylamino}cyclohexyl)-3H-benzoxazol-2-one] | 199 to 201 | 
NC(=O)CN(CCCc1ccc(F)cc1)[C@H]1CC[C@H](c2ccc3[nH]c(=O)oc3c2)CC1 (as salt: HCl) [Example 34, 2-{[3-(4-Fluorophenyl)propyl]-[4-(2-oxo-2,3-dihydro-benzoxazol-6-yl)-cyclohexyl]amino}acetamide] | 266 to 270 | 
NCCN(CCCc1ccc(F)cc1)[C@H]1CC[C@H](c2ccc3[nH]c(=O)oc3c2)CC1 (as salt: HCl) [Example 35, 6-(trans-4-{(2-Aminoethyl)-[3-(4-fluorophenyl)propyl]amino}cyclohexyl)-3H-benzoxazol-2-one] | 161 to 169 | 
CC(C)c1ccc(CCCN(C)[C@H]2CC[C@H](c3ccc4[nH]c(=O)oc4c3)CC2)cc1 (as salt: HCl) [Example 53, 6-(trans-4-{[3-(4-Isopropylphenyl)propyl]methylamino}cyclohexyl)-3H-benzoxazol-2-one] | 179 to 181 | 
CN(CCCc1ccc(Cl)cc1Cl)[C@H]1CC[C@H](c2ccc3[nH]c(=O)oc3c2)CC1 (as salt: HCl) [Example 54, 6-(trans-4-{[3-(2,4-Dichlorophenyl)propyl]methylamino}cyclohexyl)-3H-benzoxazol-2-one] | 273 to 279 | 
CN(CCCc1ccc(F)c(F)c1F)[C@H]1CC[C@H](c2ccc3[nH]c(=O)oc3c2)CC1 (as salt: HCl) [Example 55, 6-(trans-4-{[3-(2,3,4-Trifluorophenyl)propyl]methylamino}cyclohexyl)-3H-benzoxazol-2-one] | 269 to 274 | 
CC(C)Cc1ccc(CCCN(C)[C@H]2CC[C@H](c3ccc4[nH]c(=O)oc4c3)CC2)cc1 (as salt: HCl) [Example 56, 6-(trans-4-{[3-(4-Isobutylphenyl)propyl]methylamino}cyclohexyl)-3H-benzoxazol-2-one] | 162 to 165 | 
CN(CCCc1c(F)cc(F)cc1F)[C@H]1CC[C@H](c2ccc3[nH]c(=O)oc3c2)CC1 (as salt: HCl) [Example 57, 6-(trans-4-{[3-(2,4,6-Trifluorophenyl)propyl]methylamino}cyclohexyl)-3H-benzoxazol-2-one] | 235 to 238 | 
CN(CCCc1nccs1)[C@H]1CC[C@H](c2ccc3[nH]c(=O)oc3c2)CC1 (as salt: HCl) [Example 59, 6-{trans-4-[Methyl(3-thiazol-2-ylpropyl)amino]cyclohexyl}-3H-benzoxazol-2-one] | 237 to 239 | 
CN(CCN(C)[C@H]1CC[C@H](c2ccc3[nH]c(=O)oc3c2)CC1)c1ccccc1 (as salt: HCl) [Example 60, 6-(trans-4-{Methyl-[2-(Methylphenylamino)ethyl]amino}cyclohexyl)-3H-benzoxazol-2-one] | 240 to 243 | 
O=c1[nH]c2ccc([C@H]3CC[C@H](NCCCc4ccc(F)cc4)CC3)cc2[nH]1 (as salt: HCl) [Example 62, 5-{trans-4-[3-(4-Fluorophenyl)propylamino]cyclohexyl}-1,3-dihydrobenzoimidazol-2-one] | 336 to 339 | 
Cc1cc2[nH]c(=O)oc2cc1[C@H]1CC[C@H](N(C)CCCc2ccc(F)cc2)CC1 (as salt: salt) [Example 64, 6-(4-{[3-(4-Fluorophenyl)propyl]methyl-amino}cyclohexyl)-5-methyl-3H-benzoxazol-2-one] | 264 to 267 | 
COc1cc2[nH]c(=O)oc2cc1[C@H]1CC[C@H](N(C)CCCc2ccc(F)cc2)CC1 (as salt: salt) [Example 65, 6-(trans-4-{[3-(4-Fluorophenyl)propyl]methylamino}cyclohexyl)-5-methoxy-3H-benzoxazol-2-one] | 239 to 242 | 
C[C@H](N[C@H]1CC[C@H](c2ccc3[nH]c(=O)oc3c2)CC1)[C@H](O)c1ccccc1 (stereo in doubt) (as salt: HCl) [Example 12, 6-{trans-4-[(1S,2R)-2-Hydroxy-1-methyl-2-phenylethylamino]cyclohexyl}-3H-benzoxazol-2-one] | 251 to 256 | 
O=c1[nH]c2ccc(C3=CCC(NCCCc4ccccc4)CC3)cc2o1 (stereo not shown) [Example 6, 6-[4-(3-Phenylpropylamino)cyclohex-1-enyl]-3H-benzoxazol-2-one] | 293 to 295 | 9

Results, then the compound that gave them:

melting point [°C] | IC50 [1] [nM] | SMILES
224 to 227 |  | CN(CCCc1ccc(F)c(F)c1)[C@H]1CC[C@H](c2ccc3[nH]c(=O)oc3c2)CC1 (as salt: HCl) [Example 40b, 6-(trans-4-{[3-(3,4-Difluorophenyl)propyl]methylamino}cyclohexyl)-3H-benzoxazol-2-one]
274 to 275 |  | CN(CCCc1ccc(Cl)cc1F)[C@H]1CC[C@H](c2ccc3[nH]c(=O)oc3c2)CC1 (as salt: HCl) [Example 45b, 6-(trans-4-{[3-(4-Chloro-2-fluorophenyl)propyl]methylamino}cyclohexyl)-3H-benzoxazol-2-one]
242 to 246 |  | CN(CCCc1ccccc1F)[C@H]1CC[C@H](c2ccc3[nH]c(=O)oc3c2)CC1 (as salt: HCl) [Example 46b, 6-(trans-4-{[3-(2-Fluorophenyl)propyl]methylamino}cyclohexyl)-3H-benzoxazol-2-one]
210 to 238 |  | CN(CCCc1cccc(F)c1)[C@H]1CC[C@H](c2ccc3[nH]c(=O)oc3c2)CC1 (as salt: HCl) [Example 47b, 6-(trans-4-{[3-(3-Fluorophenyl)propyl]methylamino}cyclohexyl)-3H-benzoxazol-2-one]
264 to 269 |  | Cc1c(F)cccc1CCCN(C)[C@H]1CC[C@H](c2ccc3[nH]c(=O)oc3c2)CC1 (as salt: HCl) [Example 48b, 6-(trans-4-{[3-(3-Fluoro-2-methylphenyl)propyl]methylamino}cyclohexyl)-3H-benzoxazol-2-one]
247 to 251 |  | CN(CCCC1CCCCC1)[C@H]1CC[C@H](c2ccc3[nH]c(=O)oc3c2)CC1 (as salt: HCl) [Example 49b, 6-{trans-4-[(3-Cyclohexylpropyl)methylamino]cyclohexyl}-3H-benzoxazol-2-one]
246 to 248 |  | CN(CCCc1ccsc1)[C@H]1CC[C@H](c2ccc3[nH]c(=O)oc3c2)CC1 (as salt: HCl) [Example 52b, 6-[trans-4-{[3-(3-Thiophen-3-yl)propyl]methylamino}cyclohexyl)-3H-benzoxazol-2-one]
61 to 70 | 32 | CC(CCN(C)[C@H]1CC[C@H](c2ccc3[nH]c(=O)oc3c2)CC1)c1ccccc1 (stereo partly drawn) [Example 37b, 6-[trans-4-(Methyl-3-phenylbutylamino)cyclohexyl]-3H-benzoxazol-2-one]
